Results published in ChEMBL document CHEMBL1201862, “PubChem BioAssay data set” (2004).
The source made the active and inactive calls.

How the values were obtained:
[1] = target: SWI/SNF-related matrix-associated actin-dependent regulator of chromatin subfamily A member 2 (Homo sapiens, UniProt P51531); experiment: Luminescence-based cell-based high throughput dose response assay to identify activators of the function of SWI/SNF related, matrix associated, actin dependent regulator of chromatin, subfamily a, member 2 (SMARCA2, BRM).; type: functional
[2] = Counterscreen for activators of the function of SWI/SNF related, matrix associated, actin dependent regulator of chromatin, subfamily a, member 2 (SMARCA2, BRM): Luminescence-based cell-based high throughput dose response assay to identify non-selective compounds using the VP16 reporter assay.; type: functional
[3] = target: Disintegrin and metalloproteinase domain-containing protein 17 (Homo sapiens, UniProt P78536); experiment: exosite inhibitors of ADAM17, dose response, biochemical (AID 743260)
Albumin = Albumin (Bos taurus, UniProt P02769); experiment: Counterscreen for inhibitors of T-cell receptor (TCR)-CD3 interaction: Fluorescence-based biochemical high throughput dose response assay to identify inhibitors of T-cell receptor (TCR)-CD3 interaction using a TAMRA-labeled BSA probe.; type: functional
[4] = ADAM10 protease inhibitors, dose response, selectivity assay for ADAM17 exosite inhibitor project, biochemical, FRET peptide substrate, recombinant human ADAM10 (AID 743259);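 note: ADAM10 enzyme cleaving a FRET peptide substrate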
[5] = target: Fructose-bisphosphate aldolase (Mycobacterium tuberculosis, UniProt P9WQA3); experiment: Fluorescence-based biochemical high throughput dose response assay for inhibitors of the fructose-bisphosphate aldolase (FBA) of M. tuberculosis.; type: functional
[6] = target: T1, Trace amine-associated receptor 1 (Homo sapiens, UniProt Q96RJ0); experiment: Counterscreen for agonists of the human trace amine associated receptor 1 (hTAAR1): Fluorescence-based cell-based high throughput dose response assay to identify hTAAR1 agonist that also desensitize TAAR1 receptor response.; type: functional
T1 sequence (Q96RJ0 whole entry): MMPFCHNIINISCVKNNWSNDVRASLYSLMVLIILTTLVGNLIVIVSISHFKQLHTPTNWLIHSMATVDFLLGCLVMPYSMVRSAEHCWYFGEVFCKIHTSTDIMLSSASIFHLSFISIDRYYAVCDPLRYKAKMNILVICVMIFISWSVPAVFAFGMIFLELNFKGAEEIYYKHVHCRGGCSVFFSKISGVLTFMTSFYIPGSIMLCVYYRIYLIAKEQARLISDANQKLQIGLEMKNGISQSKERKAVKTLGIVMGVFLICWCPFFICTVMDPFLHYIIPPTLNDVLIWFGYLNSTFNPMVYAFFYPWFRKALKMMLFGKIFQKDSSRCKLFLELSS

cells [7] = type: functional, cell-based
cells [8] = type: functional, cell-based; remark: listed apart in the source
Leucine aminopeptidase = target: T2, Leucine aminopeptidase (Plasmodium falciparum 3D7, UniProt Q8IL11); experiment: P. falciparum M17LAP inhibitors, primary screen, biochemical, fluorogenic H-Leu-NHMec substrate, 1536-well (AID 1619); type: functional
T2 sequence (Q8IL11 whole entry): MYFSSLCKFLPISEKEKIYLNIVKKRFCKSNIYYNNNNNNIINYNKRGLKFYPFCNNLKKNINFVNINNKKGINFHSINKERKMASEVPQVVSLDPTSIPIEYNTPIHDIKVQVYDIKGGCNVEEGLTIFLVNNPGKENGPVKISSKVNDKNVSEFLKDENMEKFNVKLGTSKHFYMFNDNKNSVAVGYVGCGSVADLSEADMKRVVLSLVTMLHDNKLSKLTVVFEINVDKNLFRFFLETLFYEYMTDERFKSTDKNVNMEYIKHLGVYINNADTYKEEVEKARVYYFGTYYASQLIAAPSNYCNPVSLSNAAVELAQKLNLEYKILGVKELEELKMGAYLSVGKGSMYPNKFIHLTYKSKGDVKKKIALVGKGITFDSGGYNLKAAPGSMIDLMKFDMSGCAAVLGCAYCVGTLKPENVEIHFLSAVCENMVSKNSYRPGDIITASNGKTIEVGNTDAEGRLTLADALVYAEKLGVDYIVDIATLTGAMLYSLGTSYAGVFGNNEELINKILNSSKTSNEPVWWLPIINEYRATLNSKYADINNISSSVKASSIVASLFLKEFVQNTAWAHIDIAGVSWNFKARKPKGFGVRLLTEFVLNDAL

[9] = target: T1, Trace amine-associated receptor 1; experiment: Fluorescence-based cell-based high throughput dose response assay to identify agonists of the human trace amine associated receptor 1 (TAAR1).; type: functional
[10] = T. cruzi growth inhibition in host cells, dose response, cell-based, plate reader, dry powder, set 2 (AID 652275); type: functional
Fatty acid synthase [11] = target: T3, Fatty acid synthase (Homo sapiens, UniProt P49327); experiment: FAS thioesterase domain inhibitors, dose response, biochemical, kinetic fluorescence intensity (AID 624326); type: functional;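 note: rate of fluorescence rise from hydrolysis of a fluorogenic O-methyl fluorescein ester substrate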
Fatty acid synthase [12] = target: T3, Fatty acid synthase; experiment: FAS thioesterase domain inhibitors, dose response, biochemical, endpoint fluorescence intensity, uHTS hits (AID 624327); type: functional;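 note: fluorescence from hydrolysis of an O-methyl fluorescein acyl ester substrate by the enzyme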
[13] = HEK293T cytotoxicity, dose response, cytotoxicity control for miR-122 modulator project, cell-based, inhibitor set, cherry-pick, set 2 (AID 720697); type: functional

Sequence of Albumin (P02769 whole entry): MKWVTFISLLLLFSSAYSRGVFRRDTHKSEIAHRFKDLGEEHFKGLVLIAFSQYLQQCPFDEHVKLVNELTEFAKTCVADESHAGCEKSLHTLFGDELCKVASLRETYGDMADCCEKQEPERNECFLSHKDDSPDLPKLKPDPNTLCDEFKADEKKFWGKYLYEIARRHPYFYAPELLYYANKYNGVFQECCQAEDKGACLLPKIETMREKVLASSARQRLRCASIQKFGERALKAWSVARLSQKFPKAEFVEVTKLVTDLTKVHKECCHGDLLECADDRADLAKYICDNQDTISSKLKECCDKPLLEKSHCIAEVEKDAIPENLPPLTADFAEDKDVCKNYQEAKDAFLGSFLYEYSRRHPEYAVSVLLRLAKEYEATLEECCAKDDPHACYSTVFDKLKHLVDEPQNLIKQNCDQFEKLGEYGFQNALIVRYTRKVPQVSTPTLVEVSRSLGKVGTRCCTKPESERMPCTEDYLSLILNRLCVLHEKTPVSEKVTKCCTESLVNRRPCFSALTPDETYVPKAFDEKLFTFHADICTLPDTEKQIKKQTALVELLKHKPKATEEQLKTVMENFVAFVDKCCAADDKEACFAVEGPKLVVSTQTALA
T3 sequence (P49327 whole entry, the tested form may be a part): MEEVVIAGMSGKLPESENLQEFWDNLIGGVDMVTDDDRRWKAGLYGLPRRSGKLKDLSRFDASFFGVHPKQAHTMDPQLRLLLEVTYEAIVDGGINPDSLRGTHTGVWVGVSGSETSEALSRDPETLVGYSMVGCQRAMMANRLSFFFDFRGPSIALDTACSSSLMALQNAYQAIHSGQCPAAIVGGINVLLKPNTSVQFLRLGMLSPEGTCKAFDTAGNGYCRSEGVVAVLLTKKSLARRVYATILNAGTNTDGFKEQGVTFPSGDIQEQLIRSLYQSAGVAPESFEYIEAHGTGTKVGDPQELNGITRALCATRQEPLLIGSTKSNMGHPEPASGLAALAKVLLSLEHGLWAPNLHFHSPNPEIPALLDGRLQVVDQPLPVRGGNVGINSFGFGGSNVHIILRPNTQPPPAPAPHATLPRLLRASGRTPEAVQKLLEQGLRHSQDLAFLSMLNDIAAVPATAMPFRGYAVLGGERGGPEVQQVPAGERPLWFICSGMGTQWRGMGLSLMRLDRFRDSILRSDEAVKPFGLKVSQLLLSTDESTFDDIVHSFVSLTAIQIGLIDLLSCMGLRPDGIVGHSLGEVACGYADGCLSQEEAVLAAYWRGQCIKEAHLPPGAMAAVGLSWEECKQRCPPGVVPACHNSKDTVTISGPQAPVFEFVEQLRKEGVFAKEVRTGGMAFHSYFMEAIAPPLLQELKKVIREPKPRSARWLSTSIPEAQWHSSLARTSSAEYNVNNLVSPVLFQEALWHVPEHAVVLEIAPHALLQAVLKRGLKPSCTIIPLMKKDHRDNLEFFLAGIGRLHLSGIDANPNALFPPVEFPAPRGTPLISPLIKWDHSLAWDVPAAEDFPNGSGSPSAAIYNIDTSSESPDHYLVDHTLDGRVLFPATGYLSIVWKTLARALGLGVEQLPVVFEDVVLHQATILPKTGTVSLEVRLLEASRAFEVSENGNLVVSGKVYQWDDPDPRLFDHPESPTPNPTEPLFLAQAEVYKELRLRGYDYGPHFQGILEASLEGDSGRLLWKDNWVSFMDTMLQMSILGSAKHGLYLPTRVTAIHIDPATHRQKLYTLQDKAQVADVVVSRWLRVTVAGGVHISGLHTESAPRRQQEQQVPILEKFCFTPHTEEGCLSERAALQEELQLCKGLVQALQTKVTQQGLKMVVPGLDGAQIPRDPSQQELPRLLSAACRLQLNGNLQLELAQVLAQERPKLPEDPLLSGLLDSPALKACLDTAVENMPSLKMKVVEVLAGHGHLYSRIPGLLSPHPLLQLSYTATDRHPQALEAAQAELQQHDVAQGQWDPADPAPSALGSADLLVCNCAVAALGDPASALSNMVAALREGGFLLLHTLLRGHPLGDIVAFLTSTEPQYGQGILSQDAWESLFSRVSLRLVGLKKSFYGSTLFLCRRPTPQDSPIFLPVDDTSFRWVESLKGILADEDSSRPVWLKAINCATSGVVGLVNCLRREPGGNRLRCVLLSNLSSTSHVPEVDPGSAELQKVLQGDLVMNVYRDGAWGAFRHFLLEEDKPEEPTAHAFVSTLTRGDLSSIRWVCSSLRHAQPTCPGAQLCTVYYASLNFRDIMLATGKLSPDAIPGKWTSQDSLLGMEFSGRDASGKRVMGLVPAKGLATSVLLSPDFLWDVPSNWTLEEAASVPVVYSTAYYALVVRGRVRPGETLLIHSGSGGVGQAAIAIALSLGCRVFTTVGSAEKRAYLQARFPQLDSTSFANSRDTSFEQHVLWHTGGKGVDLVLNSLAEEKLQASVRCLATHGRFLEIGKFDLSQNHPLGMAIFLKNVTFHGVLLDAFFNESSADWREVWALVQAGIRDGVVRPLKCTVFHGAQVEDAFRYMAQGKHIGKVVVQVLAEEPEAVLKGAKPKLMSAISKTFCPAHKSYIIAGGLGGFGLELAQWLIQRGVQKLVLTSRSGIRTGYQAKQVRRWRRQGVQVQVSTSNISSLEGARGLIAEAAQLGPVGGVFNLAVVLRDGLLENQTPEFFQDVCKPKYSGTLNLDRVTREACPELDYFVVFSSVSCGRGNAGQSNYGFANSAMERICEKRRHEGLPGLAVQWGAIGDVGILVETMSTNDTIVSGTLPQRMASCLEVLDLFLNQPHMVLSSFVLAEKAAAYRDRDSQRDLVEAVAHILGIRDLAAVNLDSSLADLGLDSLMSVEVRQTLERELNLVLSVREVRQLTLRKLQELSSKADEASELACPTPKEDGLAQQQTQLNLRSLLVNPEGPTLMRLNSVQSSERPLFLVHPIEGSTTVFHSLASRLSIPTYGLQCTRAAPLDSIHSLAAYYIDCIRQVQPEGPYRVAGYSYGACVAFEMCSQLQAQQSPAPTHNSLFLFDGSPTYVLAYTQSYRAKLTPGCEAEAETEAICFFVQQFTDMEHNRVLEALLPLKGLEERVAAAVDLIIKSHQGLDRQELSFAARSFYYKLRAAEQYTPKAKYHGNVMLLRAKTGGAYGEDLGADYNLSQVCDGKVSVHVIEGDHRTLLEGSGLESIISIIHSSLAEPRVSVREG
Sequence of SWI/SNF-related matrix-associated actin-dependent regulator of chromatin subfamily A member 2 (P51531 whole entry): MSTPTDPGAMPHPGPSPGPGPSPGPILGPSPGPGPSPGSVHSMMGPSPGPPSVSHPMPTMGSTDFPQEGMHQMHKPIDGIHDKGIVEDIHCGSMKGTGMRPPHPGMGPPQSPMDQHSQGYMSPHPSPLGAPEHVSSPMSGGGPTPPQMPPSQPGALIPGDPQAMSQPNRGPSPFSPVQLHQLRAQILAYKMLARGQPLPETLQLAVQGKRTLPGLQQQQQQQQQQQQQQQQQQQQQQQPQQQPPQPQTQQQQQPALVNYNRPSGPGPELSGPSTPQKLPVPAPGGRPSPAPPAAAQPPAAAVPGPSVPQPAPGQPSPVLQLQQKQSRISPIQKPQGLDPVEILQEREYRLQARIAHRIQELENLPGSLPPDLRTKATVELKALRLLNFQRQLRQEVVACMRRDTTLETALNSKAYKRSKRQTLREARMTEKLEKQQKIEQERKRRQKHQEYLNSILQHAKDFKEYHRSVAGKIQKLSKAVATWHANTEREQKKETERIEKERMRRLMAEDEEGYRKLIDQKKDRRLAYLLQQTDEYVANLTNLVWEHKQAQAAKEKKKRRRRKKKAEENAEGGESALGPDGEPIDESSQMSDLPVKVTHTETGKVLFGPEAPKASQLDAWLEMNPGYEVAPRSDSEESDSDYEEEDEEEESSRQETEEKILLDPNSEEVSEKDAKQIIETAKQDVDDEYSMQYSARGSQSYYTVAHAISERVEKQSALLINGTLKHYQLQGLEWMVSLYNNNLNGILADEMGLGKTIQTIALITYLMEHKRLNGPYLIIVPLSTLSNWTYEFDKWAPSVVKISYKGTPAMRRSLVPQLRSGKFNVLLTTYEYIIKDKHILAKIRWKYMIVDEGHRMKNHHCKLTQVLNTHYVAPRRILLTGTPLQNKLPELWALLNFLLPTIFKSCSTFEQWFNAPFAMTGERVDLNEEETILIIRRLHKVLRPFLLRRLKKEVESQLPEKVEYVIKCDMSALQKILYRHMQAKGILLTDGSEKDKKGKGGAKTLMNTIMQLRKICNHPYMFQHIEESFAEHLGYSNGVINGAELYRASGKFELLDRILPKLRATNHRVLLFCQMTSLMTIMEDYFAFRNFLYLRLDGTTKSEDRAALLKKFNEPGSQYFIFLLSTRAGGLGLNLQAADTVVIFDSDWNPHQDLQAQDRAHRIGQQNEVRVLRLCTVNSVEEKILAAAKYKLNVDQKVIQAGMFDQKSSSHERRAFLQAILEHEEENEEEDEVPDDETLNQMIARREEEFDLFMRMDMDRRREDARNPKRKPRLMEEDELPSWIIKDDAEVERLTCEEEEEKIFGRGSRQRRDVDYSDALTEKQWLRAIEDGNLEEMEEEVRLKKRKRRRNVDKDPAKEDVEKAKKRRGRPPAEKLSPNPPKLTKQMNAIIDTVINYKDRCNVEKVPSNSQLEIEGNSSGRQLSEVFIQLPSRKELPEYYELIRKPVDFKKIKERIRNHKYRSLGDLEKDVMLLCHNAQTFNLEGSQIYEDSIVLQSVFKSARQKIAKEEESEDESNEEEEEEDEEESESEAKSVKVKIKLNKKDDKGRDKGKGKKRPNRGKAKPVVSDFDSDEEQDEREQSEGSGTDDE
Sequence of Fructose-bisphosphate aldolase (P9WQA3 whole entry): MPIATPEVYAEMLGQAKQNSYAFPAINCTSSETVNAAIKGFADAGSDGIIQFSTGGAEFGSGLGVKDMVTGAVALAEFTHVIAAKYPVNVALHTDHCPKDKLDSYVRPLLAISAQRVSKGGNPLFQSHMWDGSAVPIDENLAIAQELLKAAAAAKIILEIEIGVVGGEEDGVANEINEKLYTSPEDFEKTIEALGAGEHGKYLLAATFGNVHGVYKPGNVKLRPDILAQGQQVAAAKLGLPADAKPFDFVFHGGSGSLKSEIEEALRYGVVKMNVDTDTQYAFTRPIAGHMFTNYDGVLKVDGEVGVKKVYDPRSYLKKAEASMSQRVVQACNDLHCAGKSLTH

Question: With `O=C(/C=C/c1ccc(-c2ccccc2)o1)c1ccccc1` as the molecule, how does the EC50 [1] read?
Answer: Its EC50 is > 91.2 µM (inactive).

Question: What about the EC50 [2] of the same molecule?
Answer: The EC50 was > 91.2 µM (inactive).

Question: Which IC50 [3] does the source give for `COc1ccccc1N(C)S(=O)(=O)c1ccc(C(=O)NNC(=O)c2ccccc2O)cc1` here?
Answer: The IC50 was > 69.5 µM (inactive).

Question: And the IC50 (Albumin)?
Answer: Its IC50 is > 94.1 µM (inactive).

Question: What about the IC50 [4] of the same molecule?
Answer: Its IC50 is > 69.5 µM (inactive).

Question: With `Cc1cc(C)c2oc(-c3cccc(N)c3)nc2c1` as the molecule, how does the IC50 [5] read?
Answer: The IC50 was 518 nM (active).

Question: Which IC50 [6] does the source give for `CC1=C(C)CC(C(=O)NCCc2ccccc2)C(C(=O)O)C1` (stereo unspecified) here?
Answer: Its IC50 is 7.2 µM (active).

Question: What about the EC50 (cells [7]) of the same molecule?
Answer: Its EC50 is > 29.9 µM (inactive).

Question: And the IC50 (cells [8])?
Answer: The IC50 was > 29.9 µM (inactive).

Question: And the IC50 (Leucine aminopeptidase)?
Answer: Its IC50 is 46 µM (active).

Question: And the EC50 [9]?
Answer: The EC50 was 1.4 µM (active).

Question: Which AC50 [10] does the source give for `C[C@H]1CN([C@@H](C)CO)C(=O)c2cccc(NC(=O)c3ccncc3)c2O[C@@H]1CN(C)Cc1ccccc1C(F)(F)F` here?
Answer: The AC50 was 34.2 nM (active).

Question: With `O=C(N/N=C/c1cc([N+](=O)[O-])cc([N+](=O)[O-])c1O)/C(=C\c1cccs1)NC(=O)c1ccccc1` as the molecule, how does the IC50 (Fatty acid synthase [11]) read?
Answer: Its IC50 is 4.89 µM (active).

Question: And the IC50 (Fatty acid synthase [12])?
Answer: Its IC50 is 6.3 µM (active).

Question: What about the IC50 (Albumin) of the same molecule?
Answer: Its IC50 is > 94.1 µM (inactive).

Question: With `C[C@@H]1CN([C@@H](C)CO)S(=O)(=O)c2ccc(/C=C/c3ccccc3)cc2O[C@@H]1CN(C)C(=O)NC1CCCCC1` as the molecule, how does the AC50 [13] read?
Answer: Its AC50 is 533 nM (active).
